Measured values reported in ChEMBL document CHEMBL1147640, “Antitumor agents. Part 232: Synthesis of cyclosulfite podophyllotoxin analogues as novel prototype antitumor agents” (2004).
pEC50: −log10 of the molar value.

Columns and labels:
Settings in all cases: Homo sapiens, read-out: ED50 (the source's name)
1A9 = experiment: Effective dose of compound against replication of 1A9 cell line was evaluated; type: functional
A549 = experiment: Effective dose of compound against replication of A549 cell line was evaluated; type: functional
HCT-8 = experiment: Effective dose of compound against replication of HCT-8 cell line was evaluated; type: functional
HOS = experiment: Effective dose of compound against replication of HOS cell line was evaluated; type: functional
KB [1] = experiment: Effective dose of compound against replication of KB cell line was evaluated; type: functional
KB [2] = experiment: Effective dose of compound against replication of KB-Vin cell line was evaluated; type: functional
KB [3] = experiment: Effective dose of compound against replication of KB/7d cell line was evaluated; type: functional
MCF7 = experiment: Effective dose of compound against replication of MCF-7 cell line was evaluated; type: functional
PC-3 = experiment: Effective dose of compound against replication of PC-3 cell line was evaluated; type: functional
SK-MEL-2 = experiment: Effective dose of compound against replication of SK-MEL-2 cell line was evaluated; type: functional
U-87 MG = experiment: Effective dose of compound against replication of U87MG cell line was evaluated; type: functional, U-87MG ATCC

COc1cc([C@@H]2c3cc4c(cc3[C@@H](Nc3ccc([N+](=O)[O-])cc3)[C@H]3COC(=O)[C@H]23)OCO4)cc(OC)c1O
pEC50 (1A9): > 5.80 | pEC50 (A549): > 7.00 | pEC50 (HCT-8): 5.80 | pEC50 (HOS): > 5.80 | pEC50 (KB [1]): 5.46 | pEC50 (KB [2]): 5.39 | pEC50 (KB [3]): 5.82 | pEC50 (MCF7): 4.61 | pEC50 (PC-3): 5.05 | pEC50 (SK-MEL-2): 5.52 | pEC50 (U-87 MG): 5.26

COc1cc([C@@H]2c3cc4c(cc3[C@@H](Nc3ccc([N+](=O)[O-])cc3)[C@H]3COS(=O)OC[C@H]23)OCO4)cc(OC)c1O (some centres not stated)
pEC50 (1A9): 5.38 | pEC50 (A549): 5.10 | pEC50 (HCT-8): 5.00 | pEC50 (HOS): 5.22 | pEC50 (KB [1]): 5.29 | pEC50 (KB [2]): 5.15 | pEC50 (KB [3]): 5.54 | pEC50 (MCF7): 5.60 | pEC50 (PC-3): < 4.70 | pEC50 (SK-MEL-2): 5.10 | pEC50 (U-87 MG): 5.10
